# Measured values from patent US20110028447A1, “INDAZOLE DERIVATIVES” (Pfizer Inc., priority 2008, published 2011).
# Read-outs that look alike come from different tables or passages of the source.
# Columns and labels:
# [1] = target: T1, human CB1 receptor (Homo sapiens, UniProt P21554); test: [35S] GTPγS binding on membranes of CHO cells expressing the human CB1 receptor (agonism); format: biochemical; set-up: expressed in transfected cells; membrane preparation
# Method: Membrane preparation: CHO cells expressing the human CB1 receptor were grown to 80% confluence in Ham's F-12 Nutrient Medium (Invitrogen) containing 10% fetal bovine serum (Invitrogen), 1% pen/strep (Invitogen), 1% Nonessential amino acids (Invitrogen) and 500 μg/ml G418 (Invitrogen). Cells were released from flasks using Cell Dissociation Buffer (Invitrogen). Cells were pelleted by centrifugation at 500×G for 5 minutes. Membranes were prepared by resuspending cells in ice cold Assay Buffer (25 mM Tris pH 7.4, 5 mM EDTA, 5 mM EGTA, Complete Protease Inhibitor (Roche)). Cells were lysed with 12 strokes of a dounce homogenizer. Unlysed cells were pelleted by centrifugation at 500×G for 5 minutes. Membranes were pelleted by centrifugation at 25,000×G for 30 minutes. Membranes were resuspended in TEE, dounced 12 strokes, and pelleted a second time at 25,000×G for 30 minutes. Membrane pellet was resuspended in 50 mM Tris pH 7.4, 100 mM NaCl, 3 mM MgCl2, 0.2 mM EGTA, Complete Protease Inhibitor (Roche). Protein concentration was determined using the Micro-BCA Protein Assay Kit (Pierce) using BSA as a standard. Membranes were frozen and stored at −80 degrees Celsius until use.
# GTPγS Binding: 40 μl of test compound was incubated with 20 μl of [^35S] GTPγS (Perkin Elmer) (1250 Ci/millimole) and 140 μl of membrane homogenate (5 μg/well) in polypropylene 96-well plates (Corning). Final reaction conditions were 50 mM Tris pH 7.4, 100 mM NaCl, 3 mM MgCl2, 0.2 mM EGTA, 0.04% BSA. After incubation at 37 degrees Celsius for 45 minutes reactions were harvested by vacuum filtration through Unifilter GF/B-96 filters (Perkin Elmer) using a FilterMate Plate Harvester (Perkin Elmer). Filters were rinsed 4 times with ice cold 50 mM Tris pH 7.4, 3 mM MgCl2, 0.2 mM EGTA and dried at 50 degrees Celsius for at least 30 minutes. 40 μl of Microscint-20 (Perkin Elmer) was added per well, and plates were counted using a Top-Count Microplate Scintillation Counter (Perkin Elmer). Binding data were analyzed and EC50 values were calculated using Graph Pad Prism 4.0 Software.
# [2] = target: T1, human CB1 receptor; test: Human CB1 receptor binding, [3H] CP-55,940 displacement on HEK cell membranes; set-up: expressed in transfected cells; host or cells: HEK cells, doxycycline-induced; membrane preparation
# Outline: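 Radioligand displacement: [3H] CP-55,940 at […] final, 1 μg membrane protein per well from HEK cells with tetracycline-inducible human CB1, 60 min at room temperature, pH 7.4 Tris/NaCl/MgCl2/EGTA/BSA buffer. 50 μM WIN-55,212-2 set nonspecific binding; bound label filtered, counted, and fitted for EC50 and Ki values.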
# [3] = GTPγS EC50, human CB1, CHO cell membranes
# [4] = human CB1, CHO cell membranes, read-out: GTPγS EC50
# T1 sequence (P21554 whole entry): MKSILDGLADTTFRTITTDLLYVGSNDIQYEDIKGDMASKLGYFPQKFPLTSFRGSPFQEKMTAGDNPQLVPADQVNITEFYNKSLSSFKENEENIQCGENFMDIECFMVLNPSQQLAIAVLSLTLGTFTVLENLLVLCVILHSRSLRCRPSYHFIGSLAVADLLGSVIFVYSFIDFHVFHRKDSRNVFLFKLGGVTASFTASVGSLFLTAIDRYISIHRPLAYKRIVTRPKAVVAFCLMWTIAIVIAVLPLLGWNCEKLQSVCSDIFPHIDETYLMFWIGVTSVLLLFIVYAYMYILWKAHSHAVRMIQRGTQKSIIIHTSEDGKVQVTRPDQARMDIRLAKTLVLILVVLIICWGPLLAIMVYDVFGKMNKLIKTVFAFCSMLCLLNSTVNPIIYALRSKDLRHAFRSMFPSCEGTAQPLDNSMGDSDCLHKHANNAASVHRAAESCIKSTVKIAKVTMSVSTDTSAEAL
Compound,"EC50 [1, 3]",Ki ([2]; CB1 Ki),"EC50 [1, 4]",Ki ([2]; read-out: CB1 Ki)
CC(C)(C)C(NC(=O)c1nn(Cc2ccccc2)c2ccccc12)C(N)=O (stereo not drawn) [Example 27],0.0147 µM,0.00033 µM,,
CC(C)(C)C(NC(=O)c1nn(Cc2ccc(C#N)cc2)c2ccccc12)C(N)=O (stereo not drawn) [Example 28],0.121 µM,0.00205 µM,,
CC(C)(C)C(NC(=O)c1nn(Cc2ccccc2C#N)c2ccccc12)C(N)=O (stereo not drawn) [Example 30],0.0789 µM,0.00922 µM,,
CC(C)(C)C(NC(=O)c1nn(Cc2ccccc2)c2cc(Br)ccc12)C(N)=O (stereo not drawn) [Example 33],0.00092 µM,0.00024 µM,,
CC(C)(C)C(NC(=O)c1nn(Cc2ccccc2)c2ccc(-c3ncco3)cc12)C(N)=O (stereo not drawn) [Example 35],,,0.271 µM,0.0353 µM
COC(=O)[C@@H](NC(=O)c1nn(Cc2ccccc2)c2ccccc12)C(C)(C)C [Example 38],0.00242 µM,0.00014 µM,,
COc1cccc(CNC(=O)c2nn(Cc3ccccc3)c3ccccc23)c1 [Example 43],0.101 µM,0.0271 µM,,
CC(C)(C)[C@H](NC(=O)c1nn(Cc2ccccc2)c2cc(-c3cccnc3)ccc12)C(N)=O [Example 45],,,0.0214 µM,0.00879 µM
CC(C)(C)[C@H](NC(=O)c1nn(Cc2ccc(C#N)cc2)c2ccccc12)C(=O)NC1CC1 [Example 65],0.09 µM,0.00385 µM,,
CC(C)(C)[C@H](NC(=O)c1nn(Cc2ccc(C#N)cc2)c2ccccc12)C(=O)NCCCO [Example 67],0.827 µM,0.0465 µM,,
Cc1cc(CNC(=O)c2nn(Cc3ccc(C#N)cc3)c3ccccc23)c(C)o1 [Example 68],0.0901 µM,0.00461 µM,,
CC(C)(C)[C@H](NC(=O)c1nn(Cc2ccc(C#N)cc2)c2ccccc12)C(=O)NCCO [Example 69],0.183 µM,0.0188 µM,,
CC(C)(C)[C@H](NC(=O)c1nn(Cc2ccc(C#N)cc2)c2ccccc12)c1nnc(N)o1 [Example 71],,,0.314 µM,0.00885 µM
CC(C)(C)[C@H](NC(=O)c1nn(Cc2ccccc2)c2ccccc12)C(=O)NC[C@H](O)CO [Example 73],0.217 µM,0.0229 µM,,
CC(C)(C)C(NC(=O)c1nn(Cc2ccc(F)cc2)c2ccccc12)C(=O)NCC(O)CO (stereo not drawn) [Example 77],0.0481 µM,0.00539 µM,,
CC(C)(C)C(NC(=O)c1nn(Cc2ccc(F)cc2)c2ccccc12)c1nnc(NC(=O)C2CC2)o1 (stereo not drawn) [Example 78],,,0.00288 µM,0.00059 µM
CC(C)(C)C(NC(=O)c1nn(Cc2ccc(F)cc2)c2ccccc12)C(=O)NCC(O)CO (stereo not drawn) [Example 79],0.0271 µM,0.00202 µM,,
CC(C)(C)C(NC(=O)c1nn(Cc2ccc(F)cc2)c2ccccc12)C(=O)NC1CC1 (stereo not drawn) [Example 80],0.00182 µM,0.00021 µM,,
CC(C)(C)C(NC(=O)c1nn(Cc2ccc(F)cc2)c2ccccc12)C(=O)NCCO (stereo not drawn) [Example 81],0.00098 µM,0.00032 µM,,
CC(C)(C)C(NC(=O)c1nn(Cc2ccc(F)cc2)c2ccccc12)C(=O)NCC(N)=O (stereo not drawn) [Example 82],0.0221 µM,0.00112 µM,,
CC(C)(C)C(NC(=O)c1nn(Cc2ccccc2)c2ccccc12)C(=O)NCCNC(N)=O (stereo not drawn) [Example 83],0.72 µM,0.0153 µM,,
CC(C)(C)C(NC(=O)c1nn(Cc2ccc(F)cc2)c2ccccc12)C(=O)NCCNC(N)=O (stereo not drawn) [Example 85],0.0161 µM,0.00172 µM,,
CC(C)(C)C(NC(=O)c1nn(Cc2ccc(C#N)cc2F)c2ccccc12)C(N)=O (stereo not drawn) [Example 86],0.0342 µM,0.00275 µM,,
CC(C)(C)C(NC(=O)c1nn(Cc2ccc(C#N)cc2F)c2ccccc12)C(=O)NC1CC1 (stereo not drawn) [Example 87],0.0461 µM,0.00226 µM,,
CC(C)(C)C(NC(=O)c1nn(Cc2ccc(C#N)cc2F)c2ccccc12)c1nnc(NC(=O)C2CC2)o1 (stereo not drawn) [Example 88],,,0.132 µM,0.0154 µM
CC(C)(C)C(NC(=O)c1nn(Cc2ccc(C#N)cc2F)c2ccccc12)C(=O)NCC(O)CO (stereo not drawn) [Example 89],0.539 µM,0.0634 µM,,

Compound,"EC50 [1, 3]",Ki ([2]; CB1 Ki),"EC50 [1, 4]",Ki ([2]; read-out: CB1 Ki)
CC(C)(C)C(NC(=O)c1nn(Cc2ccc(C#N)cc2F)c2ccccc12)C(=O)NCC(O)CO (stereo not drawn) [Example 90],0.385 µM,0.0274 µM,,
CC(C)(C)C(NC(=O)c1nn(Cc2ccc(C#N)cc2F)c2ccccc12)C(=O)NCCO (stereo not drawn) [Example 91],0.0538 µM,0.00187 µM,,
CC(C)(C)C(NC(=O)c1nn(Cc2ccc(C#N)cc2F)c2ccccc12)C(=O)NCC(N)=O (stereo not drawn) [Example 92],0.265 µM,0.0141 µM,,
CC(C)(C)C(NC(=O)c1nn(Cc2ccc(C#N)cc2F)c2ccccc12)C(=O)NCCCO (stereo not drawn) [Example 93],0.0418 µM,0.0143 µM,,
CC(C)(C)C(NC(=O)c1nn(Cc2ccc(C#N)cc2F)c2ccccc12)C(=O)NCCNC(N)=O (stereo not drawn) [Example 94],0.077 µM,0.0275 µM,,
CC(C)(C)C(NC(=O)c1nn(Cc2ccc(C#N)cc2F)c2ccccc12)c1nnc(N)o1 (stereo not drawn) [Example 95],,,0.0137 µM,0.00222 µM
CC(C)(C)C(NC(=O)c1nn(Cc2ccccc2)c2ccccc12)C(=O)NCCNS(=O)(=O)C1CC1 (stereo not drawn) [Example 96],,,0.0169 µM,0.00118 µM
CC(C)(C)[C@H](NC(=O)c1nn(Cc2ccc(C#N)cc2)c2ccccc12)C(=O)NCCNS(=O)(=O)C1CC1 [Example 97],,,0.0167 µM,0.00104 µM
CC(C)(C)[C@H](NC(=O)c1nn(Cc2ccc(C#N)cc2F)c2ccccc12)C(=O)NCCNS(=O)(=O)C1CC1 [Example 98],,,0.00863 µM,0.00098 µM
CC(C)(C)[C@H](NC(=O)c1nn(Cc2ccc(F)cc2)c2ccccc12)C(=O)NCCNS(=O)(=O)C1CC1 [Example 99],,,0.0005 µM,0.00018 µM
CC(C)(C)[C@H](NC(=O)c1nn(Cc2ccc(F)cc2)c2ccccc12)C(=O)NCCNC(=O)C1CC1 [Example 103],,,0.00908 µM,0.00268 µM
CC(C)(C)[C@H](NC(=O)c1nn(Cc2ccc(C#N)cc2)c2c(F)cccc12)C(=O)NC1CC1 [Example 108],0.027 µM,0.00378 µM,,
CC(C)(C)[C@H](NC(=O)c1nn(Cc2ccc(C#N)cc2)c2c(F)cccc12)C(=O)NCCCO [Example 109],0.11 µM,0.00814 µM,,
CC(C)(C)[C@H](NC(=O)c1nn(Cc2ccc(C#N)cc2)c2c(F)cccc12)C(=O)NCC(N)=O [Example 110],0.237 µM,0.0289 µM,,
CC(C)(C)[C@H](NC(=O)c1nn(Cc2ccc(C#N)cc2)c2c(F)cccc12)C(N)=O [Example 111],0.00973 µM,0.00072 µM,,
CC(C)(C)[C@H](NC(=O)c1nn(Cc2ccc(C#N)cc2)c2c(F)cccc12)c1nnc(N)o1 [Example 112],,,0.0318 µM,0.00051 µM
CC(C)(C)[C@H](NC(=O)c1nn(Cc2ccc(C#N)cc2)c2c(F)cccc12)C(=O)NC[C@H](O)CO [Example 113],0.188 µM,0.00779 µM,,
CC(C)(C)[C@H](NC(=O)c1nn(Cc2ccc(C#N)cc2)c2c(F)cccc12)C(=O)NCCNS(=O)(=O)C1CC1 [Example 115],,,0.00872 µM,0.00109 µM
CC(C)(C)[C@H](NC(=O)c1nn(Cc2ccc(C#N)cc2)c2c(F)cccc12)C(=O)NCc1nnc(C(N)=O)o1 [Example 116],,,0.0496 µM,0.0135 µM
CC(C)(C)[C@H](NC(=O)c1nn(Cc2ccc(C#N)cc2)c2c(F)cccc12)C(=O)NC(CO)CO [Example 117],0.168 µM,0.00954 µM,,
CC(C)(C)C(NC(=O)c1nn(Cc2ccc(F)cc2)c2ccccc12)c1nnc(NC(N)=O)o1 (stereo not drawn) [Example 118],,,0.0238 µM,0.0007 µM
CC(C)(C)C(NC(=O)c1nn(Cc2ccc(F)cc2)c2ccccc12)c1nnc(CC(N)=O)o1 (stereo not drawn) [Example 120],,,0.04 µM,0.00305 µM
CC(C)(C)C(NC(=O)c1nn(Cc2ccc(F)cc2)c2ccccc12)c1nnc(C(N)=O)o1 (stereo not drawn) [Example 122],,,0.0131 µM,0.00073 µM
Cc1nnc(CNC(=O)[C@@H](NC(=O)c2nn(Cc3ccc(F)cc3)c3ccccc23)C(C)(C)C)o1 [Example 126],0.00255 µM,0.00097 µM,,
Cc1nnc(CNC(=O)[C@@H](NC(=O)c2nn(Cc3ccc(C#N)cc3)c3ccccc23)C(C)(C)C)o1 [Example 127],0.136 µM,0.0328 µM,,
